Assay results published in patent US10660967B2, “Curcumin conjugates and methods of use thereof” (priority 2016, dated 2020).
Several values for one entry are separate records, joined by “and”; a condition that tells them apart may be missing. Equal entries are not always repeated.

System: carrageenan induced paw edema
Assay: Anti-inflammatory activity: acute carrageenan induced paw edema in rats
Format: in vivo, Wister rats
Conditions: 10 mg kg^−1 indomethacin mol equivalent; for % inhibition of edema / Mean edema thickness: intraperitoneally; for Mean edema thickness: mean ± SE; for Potency (% inhibition of edema relative to that of indomethacin reference standard): at 4 h effect
Experimental: The anti-inflammatory activity of the tested compounds was determined in vivo by the acute carrageenan induced paw edema standard method in rats. See, Naumov, et al., Bioorg. Med. Chem. Lett, 25: 2314-2320 (2015), Tiwari, et al., Org. Biomol. Chem, 12: 7238-7249 (2014), Girgis, et al., Eur. J. Med. Chem, 50: 1-8 (2012), Barsoum, et al., Eur. J. Med. Chem, 44: 2172-2177 (2009), Girgis, et al., Eur. J. Med. Chem, 44: 1972-1977 (2009), Girgis, et al., Eur. J. Med. Chem, 44: 1257-1264 (2009), Girgis, et al., Eur. J. Med. Chem, 44: 91-100 (2009), Girgis, et al., Eur. J. Med. Chem, 43: 2116-2121 (2008), Girgis, et al., Bioorg. Med. Chem, 14: 8527-8532 (2006), and Barsoum, et al., Bioorg. Med. Chem, 14: 3929-3937 (2006).
Adult Wister rats of either sex (pregnant female animals were excluded) weighing 120-150 g were divided into 18 groups of 6 animals each. […] The control group was given DMSO only. Carrageenan paw edema was induced by subcutaneous injection of freshly prepared 1% solution of carrageenan in saline (0.9%, 0.1 ml per rat) into subplantar tissue of the right hind paw of rats. The thickness of the paw was measured (in mm) after successive time intervals (1, 2,3,4 and 24 h) and compared with the initial hind paw thickness of each rat for determining the edema thickness. Data were collected, checked, revised and analyzed. Quantitative variables from normal distribution were expressed as means±SE “standard error”. The anti-inflammatory activity was expressed as percentage inhibition of edema thickness in treated animals in comparison with the control group according to eqn. (1)
Where, Vc and Vt are the mean of edema paw thickness for the control and tested compound treated animal groups, respectively.

| Compound | % inhibition of edema (1 h) | Mean edema thickness (1 h) | % inhibition of edema (2 h) | Mean edema thickness (2 h) | % inhibition of edema (3 h) | % inhibition of edema (4 h) | % inhibition of edema (24 h) | Mean edema thickness (24 h) | Potency (% inhibition of edema relative to that of indomethacin reference standard) | Mean edema thickness (3 h) | Mean edema thickness (4 h) |
| --- | --- | --- | --- | --- | --- | --- | --- | --- | --- | --- | --- |
| CC[C@H](C)[C@H](N)C(=O)Oc1ccc(/C=C/C(=O)CC(=O)/C=C/c2ccc(OC(=O)[C@@H](N)[C@@H](C)CC)c(OC)c2)cc1OC.Cl.Cl [Compound 42] | 59% and 33% | 0.99 ± 0.09 mm and 1.61 ± 0.07 mm | 54% and 36% | 0.95 ± 0.09 mm and 1.31 ± 0.09 mm | 65% and 47% | 98% and 76% | 35% and 30% | 0.54 ± 0.01 mm and 0.58 ± 0.08 mm | 113 and 87 |  |  |
| COc1cc(/C=C/C(=O)CC(=O)/C=C/c2ccc(OC(=O)[C@@H](CCSC)NC(=O)OCc3ccccc3)c(OC)c2)ccc1OC(=O)[C@@H](CCSC)NC(=O)OCc1ccccc1 [Compound 20] | 79% | 0.51 ± 0.04 mm | 80% | 0.41 ± 0.03 mm | 85% | 94% | 90% | 0.08 ± 0.01 mm | 108 | 0.27 ± 0.01 mm | 0.08 ± 0.02 mm |
| COc1cc(/C=C/C(=O)CC(=O)/C=C/c2ccc(OC(=O)[C@H](CCC(N)=O)NC(=O)OC(C)(C)C)c(OC)c2)ccc1OC(=O)[C@H](CCC(N)=O)NC(=O)OC(C)(C)C [Compound 32] | 10% | 2.16 ± 0.17 mm | 16% | 1.73 ± 0.09 mm | 32% | 41% | 57% | 0.36 ± 0.02 mm | 47 | 1.22 ± 0.12 mm | 0.83 ± 0.06 mm |
| COc1cc(/C=C/C(=O)CC(=O)/C=C/c2ccc(OC(=O)CCNC(=O)OC(C)(C)C)c(OC)c2)ccc1OC(=O)CCNC(=O)OC(C)(C)C [Compound 27] | 31% | 1.66 ± 0.19 mm | 33% | 1.38 ± 0.11 mm | 45% | 61% | 28% | 0.60 ± 0.03 mm | 70 | 0.99 ± 0.12 mm | 0.55 ± 0.07 mm |
| COc1cc(/C=C/C(=O)CC(=O)/C=C/c2ccc(OC(=O)C(C)NC(=O)OC(C)(C)C)c(OC)c2)ccc1OC(=O)C(C)NC(=O)OC(C)(C)C (stereo not drawn) [Compound 25] | 11% | 2.15 ± 0.14 mm | 16% | 1.74 ± 0.18 mm | 25% | 40% | 29% | 0.59 ± 0.09 mm | 46 | 1.34 ± 0.20 mm | 0.84 ± 0.12 mm |
| COc1cc(/C=C/C(=O)CC(=O)/C=C/c2ccc(OC(=O)CNC(=O)OCc3ccccc3)c(OC)c2)ccc1OC(=O)CNC(=O)OCc1ccccc1 [Compound 5] | 64% | 0.87 ± 0.16 mm | 32% | 1.41 ± 0.19 mm | 37% | 34% | 0% | 0.83 ± 0.19 mm | 39 | 1.13 ± 0.22 mm | 0.92 ± 0.20 mm |
| COc1cc(/C=C/C(=O)CC(=O)/C=C/c2ccc(OC(=O)[C@@H](N)C(C)C)c(OC)c2)ccc1OC(=O)[C@@H](N)C(C)C.Cl.Cl [Compound 41] | 60% | 0.97 ± 0.10 mm | 50% | 1.04 ± 0.12 mm | 48% | 46% | 14% | 0.71 ± 0.11 mm | 53 | 0.93 ± 0.11 mm | 0.75 ± 0.09 mm |
| COc1cc(/C=C/C(=O)CC(=O)/C=C/c2ccc(OC(=O)[C@H](CCSC)NC(=O)OCC3c4ccccc4-c4ccccc43)c(OC)c2)ccc1OC(=O)[C@H](CCSC)NC(=O)OCC1c2ccccc2-c2ccccc21 [Compound 17] | 46% | 1.30 ± 0.04 mm | 73% | 0.56 ± 0.17 mm | 75% | 98% | 23% | 0.64 ± 0.02 mm | 113 | 0.45 ± 0.18 mm | 0.03 ± 0.01 mm |
| COc1cc(/C=C/C(=O)CC(=O)/C=C/c2ccc(OC(=O)[C@@H](CCSC)NC(=O)OC(C)(C)C)c(OC)c2)ccc1OC(=O)[C@@H](CCSC)NC(=O)OC(C)(C)C [Compound 29] | 58% | 1.01 ± 0.14 mm | 69% | 0.63 ± 0.11 mm | 74% | 89% | 41% | 0.49 ± 0.09 mm | 102 | 0.47 ± 0.08 mm | 0.15 ± 0.06 mm |
| COc1cc(/C=C/C(=O)CC(=O)/C=C/c2ccc(OC(=O)[C@@H](N)CCC(N)=O)c(OC)c2)ccc1OC(=O)[C@@H](N)CCC(N)=O.Cl.Cl [Compound 43] | 46% | 1.29 ± 0.19 mm | 45% | 1.14 ± 0.11 mm | 43% | 42% | 31% | 0.57 ± 0.09 mm | 48 | 1.02 ± 0.14 mm | 0.81 ± 0.11 mm |
